Key:
[1] = system: tubulin acetylation in HPAEC (Human pulmonary artery endothelial cells); test: Tubulin acetylation in HPAEC by Western blot (anti-acetyl tubulin); format: cell-based; settings: 4 hours at 37° C., concentration 0.1μ, FIG. 1
Description: HPAEC (3.0×10^5 cells/well, Human pulmonary artery endothelial cells) pulmonary artery endothelial cells were seeded in a six-well plate, and then treated with drugs (compounds 43, 295, 296, 40, 239, and 285) at each concentration. In four hours later at 37° C., proteins were extracted with lysis buffer and quantified by Bradford method. 5 μg of proteins were dissolved in sample buffer, subjected to electrophoresis on 4-12% gradient gel, transferred to a nitrocellulose membrane for seven minutes, and blocked in a 3% BSA solution for one hour. Anti-acetyl tubulin (1:1,000) and GAPDH (1:2,000) were added to the 3% BSA solution, after which the membrane was immersed therein and reacted at 4° C. for 10 hours, and then washed three times with 1×TBST for 10 minutes, respectively. IgG-HRP antibody (1:5,000) was added to 5% BSA, after which the membrane was immersed therein and reacted at room temperature for one hour, and then washed three times with 1×TBST for 10 minutes, respectively. In above FIG. 1, a control group indicates cells not treated with the compounds of Synthesis Examples.

HPAEC cells = test: Cell viability (CCK-8) of TGF-β stimulated HPAEC cells; format: cell-based, Human; settings: 1 μM drug with TGF-β 10 ng/ml, 48 hours, vs TGF-β only, FIG. 2
Description: TGF-β stimulation to HPAEC cells, which are a model of pulmonary arterial hypertension disease, and the survival rate according to the compounds of Synthesis Examples 1 to 6 were confirmed through cell viability measurement.
HPAEC (2.0×10^3 cells/well) cells were seeded in 96-well plate, and cultured for 24 hours in a serum free medium as starvation. 1 μM concentration of drugs (compounds 43, 295, 296, 40, 239, 285) were simultaneously treated with TGF-β (10 ng/ml) and cultured for 48 hours, after which cell viability was measured through CCK-8 assay, and the results thereof are shown in FIG. 2. In above FIG. 2, a control group indicates cells not treated with TGF-β and the compounds of Synthesis Examples, and “-” indicates cells treated only with TGF-β.

[2] = system: HPASMC (human pulmonary artery smooth muscle) cells; test: Cell proliferation inhibition (CCK-8) in TGF-β stimulated HPASMC cells; format: cell-based; settings: 1 μM drug with TGF-β 10 ng/ml, 24 hours, vs TGF-β only, FIG. 3
Description: TGF-β stimulation to HPASMC (human pulmonary artery smooth muscle) cells, which are a model of pulmonary arterial hypertension disease, and a cell proliferation inhibition rate according to treatment with six compounds of Synthesis Examples 1 to 6 were confirmed through cell viability measurement.
HPASMC (5.0×10^3 cells/well) cells were seeded in 96-well plate, and cultured for 24 hours in a serum free medium as starvation. 1 μM concentration of drugs (compounds 43, 295, 296, 40, 239, 285) were simultaneously treated with TGF-β (10 ng/ml) and cultured for 24 hours, after which cell viability was measured through CCK-8 assay, and the results thereof are shown in FIG. 3. In above FIG. 3, a control group indicates cells not treated with TGF-β and the compounds of Synthesis Examples, and “-” indicates cells treated only with TGF-β.

[3] = system: SD rats with monocrotaline (MCT)-induced pulmonary arterial hypertension; test: MCT-induced pulmonary arterial hypertension animal model (survival, lung and ventricle weights, ECG); format: in vivo, rat; settings: 20 mg/kg oral twice a day
Description: SD rats having the following conditions were prepared.
Rats, experimental animals, were divided into groups as follows in consideration of a body weight on the day before drug administration began.
During a test period, the normal group was dosed with saline, and the control group (MCT+Vehicle) was subcutaneously dosed with a monocrotaline (MCT) aqueous solution once at 3 ml/Kg, and then dosed with a vehicle consisting of a mixed solution of cremophor EL, ethanol, and saline at a volume ratio of 1:1:8. A MCT aqueous solution was prepared to reach a concentration of 20 mg/mL in a solvent adjusted to pH 7.4 using a 1 N NAOH solution in 1 N HCL. After that, subcutaneous administration was performed by adjusting to […].
The drug administration group was first subcutaneously dosed with the MCT aqueous solution at 3 ml/Kg once, and then orally dosed with compound 43 (the compound of Synthesis Example 1) at 20 mg/Kg twice a day during the test period (four weeks). The compound 43 was dissolved in a mixed solution of cremophor EL, ethanol, and saline at a volume ratio of 1:1:8, and then orally administered.
All data were expressed as mean±standard error, and each group and the control group were compared using an unpaired T test (p<0.05) to determine the effect of each experimental group.
After group separation and then administration of the MCT aqueous solution, the survival rate was evaluated by confirming a dead individual during the test period.
The individual survival rate was calculated by reflecting the number of animals surviving in the corresponding week from the first 10 animals participating in the experiment for each group. Each number on the left side of the line graph means an individual survival rate % (number of surviving individuals/total number of animals participating in experiment).
After four weeks of the test period, the lung and the heart were removed to measure the weight of the lung and the weight of left ventricle and right ventricle in each group, and the results are shown in FIGS. 5 and 6.
After four weeks of the test period, the animal was subjected to inhalation anesthesia with isoflurane, and electrodes were attached to the limbs to measure the animal's electrocardiogram for more than 30 seconds. The result was measured using a Bio Amp ECG meter and analysis was performed using LabChart 8 software.

[4] = MCT rats, after four weeks, vs control group

Row | SMILES | tubulin acetylation (acetyl tubulin expression level) [1] | survival rate (cell viability) after TGF-β stimulation (HPAEC cells) | proliferation rate after TGF-β stimulation [2] | individual survival rate ([3]; MCT 50 mg/kg s.c. once, four weeks, vehicle control 50%, FIG. 4) [%] | JT interval (ECG) [3, 4] | QT interval (ECG) [3, 4] | QTc (ECG) [3, 4] | ratio of right ventricle weight to left ventricle weight ([3]; MCT rats, after four weeks, vs control group, FIG. 6)
1 | O=C(N1CCS(=O)(=O)CC1)N(Cc1ccc(-c2nnc(C(F)F)o2)cc1F)c1ccccc1 [Compound 40, N-(4-(5-(difluoromethyl)-1,3,4-oxadiazol-2-yl)-2-fluorobenzyl)-N-phenylthiomorpholine-4-carboxamide 1,1-dioxide] | tubulin acetylation was expressed | improved | inhibited |  |  |  |  | 
2 | O=C(N1CCS(=O)(=O)CC1)N(Cc1ccc(-c2nnc(C(F)F)o2)cn1)c1ccccc1 [Compound 43, N-((5-(5-(difluoromethyl)-1,3,4-oxadiazol-2-yl)pyridin-2-yl)methyl)-N-phenylthiomorpholine-4-carboxamide 1,1-dioxide] | tubulin acetylation was expressed | improved | inhibited | 90 | significantly reduced | significantly reduced | significantly reduced | significantly reduced
3 | O=C(N1CCS(=O)(=O)CC1)N(Cc1ccc(-c2nnc(C(F)F)o2)cn1)c1cccc(Cl)c1 [Compound 239, N-(3-chlorophenyl)-N-((5-(5-(difluoromethyl)-1,3,4-oxadiazol-2-yl)pyridin-2-yl)methyl)thiomorpholine-4-carboxamide 1,1-dioxide] | tubulin acetylation was expressed | improved | inhibited |  |  |  |  | 
4 | O=C(N1CCS(=O)(=O)CC1)N(Cc1ccc(-c2nnc(C(F)F)o2)cc1F)c1ccc(F)cc1 [Compound 285, N-(4-(5-(difluoromethyl)-1,3,4-oxadiazol-2-yl)-2-fluorobenzyl)-N-(4-fluorophenyl)thiomorpholine-4-carboxamide 1,1-dioxide] | tubulin acetylation was expressed | improved | inhibited |  |  |  |  | 
5 | O=C(N1CCS(=O)(=O)CC1)N(Cc1ccc(-c2nnc(C(F)F)o2)cn1)c1ccc(F)cc1 [Compound 295, N-((5-(5-(difluoromethyl)-1,3,4-oxadiazol-2-yl)pyridin-2-yl)methyl)-N-(4-fluorophenyl)thiomorpholine-4-carboxamide 1,1-dioxide] | tubulin acetylation was expressed | improved | inhibited |  |  |  |  | 
6 | O=C(N1CCS(=O)(=O)CC1)N(Cc1ccc(-c2nnc(C(F)F)o2)cn1)c1cccc(F)c1 [Compound 296, N-((5-(5-(difluoromethyl)-1,3,4-oxadiazol-2-yl)pyridin-2-yl)methyl)-N-(3-fluorophenyl)thiomorpholine-4-carboxamide 1,1-dioxide] | tubulin acetylation was expressed | improved | inhibited |  |  |  |  | 
